Patent US20240239841A1, “PEPTIDE AND METHOD FOR TREATING PAIN USING THE SAME” (PELL BIO-MED TECHNOLOGY CO., LTD., priority 2019, published 2024)
Non-standard residues stand in square brackets, D forms with d. pGlu = O=C1CC[C@@H](C(=O)O)N1

How the values were obtained:
[1] = tested on: ICR mice with CFA-induced arthritis (bilateral mechanical hyperalgesia); test: Paw withdrawal threshold (PWT) by von Frey Filament in CFA-induced arthritis mice; conditions: for PWT value of ipsilateral hind paw / PWT value of contralateral paw: 90 min after administration; for time of best antinociceptive effect after administration: peptide 3 mg/kg, morphine 10 mg/kg, PWT determined at 0, 30, 60, 90, 120 min
[2] = tested on: C57BL/6JNarl male mice (radiant heat tail-flick); test: Radiant heat tail-flick test; format: in vivo, C57BL/6JNarl mice; conditions: oral doses of 0.1 μg/kg, 0.3 μg/kg, 0.1 mg/kg, 1 mg/kg, 3 mg/kg and 10 mg/kg, among 0.01 μg/kg to 10 mg/kg tested; latency 10-90 min; FIG. 9
Method: (§1) For conducting nociceptive pain and acid-induced chronic widespread pain experiments, C57BL/6JNarl male mice (20 to 25 g) were housed in an environment with temperature control (24±0.5° C.) and 12-hour light-dark cycle (lights on during 08:00-20:00) and allowed free access to standard laboratory food and tap water. Animals were allowed to acclimatize for 20 to 30 min prior to experimental manipulations. Animal care and handling procedures were adopted in accordance with the International Association for the Study of Pain guidelines for those animals used in pain research, and the procedures were approved by the Committee for Ethics in Animal Research.
The radiant heat tail-flick test was modified in accordance with F. E. D'Amour, D. L. Smith, A method for determining loss of pain sensation. The Journal of Pharmacology and Experimental Therapeutics 72, 74-79 (1941). The 5 to 12 mice from Preparation Example 3 were placed and acclimatized in the restrainers for 30 min prior to the tail-flick test. […] The latency was recorded every 10 min during the indicated time period (10-90 min) after oral administration with different dosages of the peptide of SEQ ID NO: 1 (0.01 μg/kg, 0.03 μg/kg, 0.1 μg/kg, 0.3 μg/kg, 1 μg/kg, 0.01 mg/kg, 0.1 mg/kg, 1 mg/kg, 3 mg/kg, and 10 mg/kg). Then the latency during 10-90 min was calculated. […]

[3] = tested on: TNF-α; test: Serum TNF-α by ELISA in CFA-induced arthritis mice after long-term oral administration; format: in vivo, ICR mice; conditions: 3 mg/kg oral once a week, 4th to 12th week; serum at 12th week; vs water control; FIG. 1
Method: (§2) On the other hand, the mice administered with water were served as the control group, which also comprised 6 mice. The mice in the experimental group and the control group were sacrificed on the 12th week after administration. The serum collection is conducted by cardiac puncture. The Mouse TNF-α Quantikine ELISA Kit (R&D System, MTA00B), Mouse IL-6 Quantikine ELISA Kit (R&D System, M600B) and enzyme-linked immunosorbent assay (ELISA) were used to determine and collect the serum concentration of TNF-α and IL-6 of mice in the experimental group and the control group.

[4] = tested on: C57BL/6JNarl male mice (acetic acid-induced visceral pain); test: Acetic acid-induced writhing (abdominal constriction) assay; format: in vivo, C57BL/6JNarl mice; conditions: oral doses of 1 μg/kg and 10 mg/kg, among 0.1 μg/kg to 10 mg/kg tested; 10 min before 1% acetic acid; FIG. 9
Method: as §1
Acid-induced abdominal constriction assay was performed in accordance with H. O. Collier, L. C. Dinneen, C. A. Johnson, C. Schneider, The abdominal constriction response and its suppression by analgesic drugs in the mouse. Br J Pharmacol Chemother 32, 295-310 (1968). In general, the mice from Preparation Example 3 were placed in a small observation chamber and habituated for 20 min. […] The numbers of abdominal constrictions in 30 min after acid injection were counted and the mean constriction numbers of mice of each group were calculated. […]

[5] = tested on: IL-6; test: Serum IL-6 by ELISA in CFA-induced arthritis mice after long-term oral administration; format: in vivo, ICR mice; conditions: 3 mg/kg oral once a week, 4th to 12th week; serum at 12th week; vs water control; FIG. 2
Method: as §2

Compound: CN1CC[C@]23c4c5ccc(O)c4O[C@H]2[C@@H](O)C=C[C@H]3[C@H]1C5 [morphine, reference compound]
- PWT value of ipsilateral hind paw ([1]; morphine 10 mg/kg oral on 4th week, rose from 0.085±0.015 g, FIG. 3): 0.64 ± 0.089 g
- PWT value of contralateral paw ([1]; morphine 10 mg/kg oral on 4th week, rose from 0.43±0.033 g, FIG. 4): 1.96 ± 0.488 g
- time of best antinociceptive effect after administration ([1]; oral): 90 min

Compound: Glp Glu Thr Ala Val Ser Ser His Glu Gln Asp ([pGlu]ETAVSSHEQD-OH; SMILES CC(C)[C@H](NC(=O)[C@H](C)NC(=O)[C@@H](NC(=O)[C@H](CCC(=O)O)NC(=O)[C@@H]1CCC(=O)N1)[C@@H](C)O)C(=O)N[C@@H](CO)C(=O)N[C@@H](CO)C(=O)N[C@@H](Cc1c[nH]cn1)C(=O)N[C@@H](CCC(=O)O)C(=O)N[C@@H](CCC(N)=O)C(=O)N[C@@H](CC(=O)O)C(=O)O) [peptide of SEQ ID NO: 1, synthesized peptide; Glp is pyroglutamic acid]
- PWT value of ipsilateral hind paw ([1]; 0.3 μg/kg oral, rose from 0.065 g, FIG. 7): 1 g
- PWT value of contralateral paw ([1]; 0.3 μg/kg oral, rose from 0.32 g, FIG. 8): 1 g
- PWT value of ipsilateral hind paw ([1]; 1 μg/kg oral, rose from 0.065 g, FIG. 7): 0.6 g
- PWT value of contralateral paw ([1]; 1 μg/kg oral, rose from 0.32 g, FIG. 8): 1.4 g
- PWT value of ipsilateral hind paw ([1]; 3 μg/kg oral, rose from 0.065 g, FIG. 7): 0.16 g
- PWT value of contralateral paw ([1]; 3 μg/kg oral, rose from 0.32 g, FIG. 8): 1 g
- PWT value of ipsilateral hind paw ([1]; 1 mg/kg oral once a week, 4th to 12th week, increased from 0.09 g, FIG. 5): 0.5˜1 g
- PWT value of contralateral paw ([1]; 1 mg/kg oral once a week, 4th to 12th week, increased from 0.4 g at 3rd week, FIG. 6): 0.6˜ 1.2 g
- PWT value of ipsilateral hind paw ([1]; 3 mg/kg oral once a week, 4th to 12th week, increased from 0.09 g of 3rd week, FIG. 5): 0.63˜1 g
- PWT value of contralateral paw ([1]; 3 mg/kg oral once a week, 4th to 12th week, increased from 0.4 g, FIG. 6): 0.87˜1.27 g
- antinociceptive effects of 1 mg/kg and 3 mg/kg compared (PWT) ([1]; oral, long-term administration once a week, 4th to 12th week): similar
- time of best antinociceptive effect after administration ([1]; oral): 90 min
- PWT value of ipsilateral hind paw ([1]; peptide 3 mg/kg oral on 4th week, rose from 0.07 g, FIG. 3): 0.9 ± 0.156 g
- PWT value of contralateral paw ([1]; peptide 3 mg/kg oral on 4th week, rose from 0.5±0.047 g, FIG. 4): 1.35 ± 0.193 g
- antinociceptive effect compared with morphine (PWT) ([1]; peptide 3 mg/kg oral vs morphine 10 mg/kg oral, lower amount required): antinociceptive effect similar to morphine
- antinociceptive effect in the radiant heat tail-flick test (% MPE) [2]: best antinociceptive effect
- serum concentration of TNF-α [3]: not detected (ND)
- antinociceptive effect in the acid-induced writhing experiment (antinociceptive activity %) [4]: best antinociceptive effect
- serum concentration of IL-6 [5]: decreased compared to the control group
